From patent US8969356B2, “Compounds useful as inhibitors of ATR kinase” (Vertex Pharmaceuticals Incorporated, priority 2010, dated 2015)

Legend:
[1] = test system: HCT116 colorectal cancer cells; assay: Cisplatin Sensitization Assay (96 h cell viability MTS); assay type: cell-based; conditions: concentration of compound required to reduce the IC50 of Cisplatin alone by at least 3-fold; HCT116, 96 h MTS
Procedure: Compounds can be screened for their ability to sensitize HCT116 colorectal cancer cells to Cisplatin using a 96 h cell viability (MTS) assay. […] Compounds and Cisplatin are then both added simultaneously to the cell media in 2-fold serial dilutions from a top final concentration of 10 μM as a full matrix of concentrations in a final cell volume of 200 μl, and the cells are then incubated at 37° C. in 5% CO2. After 96 h, 40 μl of MTS reagent (Promega G358a) is added to each well and the cells are incubated for 1 h at 37° C. in 5% CO2.

ATR kinase = biological target: T1, ATR kinase (Homo sapiens, UniProt Q13535); assay: ATR Inhibition Assay (radioactive-phosphate incorporation); assay type: biochemical
T1 construct: Assays were carried out at 25° C. in the presence of 5 nM full-length ATR
Procedure: Compounds were screened for their ability to inhibit ATR kinase using a radioactive-phosphate incorporation assay. Assays were carried out in a mixture of 50 mM Tris/HCl (pH 7.5), 10 mM MgCl2 and 1 mM DTT. Final substrate concentrations were 10 μM [γ-33P]ATP (3mCi 33P ATP/mmol ATP, Perkin Elmer) and 800 μM target peptide ([…] (SEQ. ID NO: 1)).
Assays were carried out at 25° C. in the presence of 5 nM full-length ATR. An assay stock buffer solution was prepared containing all of the reagents listed above, with the exception of ATP and the test compound of interest. 13.5 μL of the stock solution was placed in a 96 well plate followed by addition of 2 μL of DMSO stock containing serial dilutions of the test compound (typically starting from a final concentration of 15 μM with 3-fold serial dilutions) in duplicate (final DMSO concentration 7%). The plate was pre-incubated for 10 minutes at 25° C. and the reaction initiated by addition of 15 μL [γ-33P]ATP (final concentration 10 μM).
The reaction was stopped after […] by the addition of 30 μL 0.1M phosphoric acid containing 2 mM ATP. A multiscreen phosphocellulose filter 96-well plate (Millipore, Cat no. MAPHN0B50) was pretreated with 100 μL 0.2M phosphoric acid prior to the addition of 45 μL of the stopped assay mixture. The plate was washed with 5×200 μL 0.2M phosphoric acid. After drying, 100 μL Optiphase ‘SuperMix’ liquid scintillation cocktail (Perkin Elmer) was added to the well prior to scintillation counting (1450 Microbeta Liquid Scintillation Counter, Wallac).
After removing mean background values for all of the data points, Ki(app) data were calculated from non-linear regression analysis of the initial rate data using the Prism software package (GraphPad Prism version 3.0cx for Macintosh, GraphPad Software, San Diego Calif., USA).

T1 sequence (Q13535 whole entry): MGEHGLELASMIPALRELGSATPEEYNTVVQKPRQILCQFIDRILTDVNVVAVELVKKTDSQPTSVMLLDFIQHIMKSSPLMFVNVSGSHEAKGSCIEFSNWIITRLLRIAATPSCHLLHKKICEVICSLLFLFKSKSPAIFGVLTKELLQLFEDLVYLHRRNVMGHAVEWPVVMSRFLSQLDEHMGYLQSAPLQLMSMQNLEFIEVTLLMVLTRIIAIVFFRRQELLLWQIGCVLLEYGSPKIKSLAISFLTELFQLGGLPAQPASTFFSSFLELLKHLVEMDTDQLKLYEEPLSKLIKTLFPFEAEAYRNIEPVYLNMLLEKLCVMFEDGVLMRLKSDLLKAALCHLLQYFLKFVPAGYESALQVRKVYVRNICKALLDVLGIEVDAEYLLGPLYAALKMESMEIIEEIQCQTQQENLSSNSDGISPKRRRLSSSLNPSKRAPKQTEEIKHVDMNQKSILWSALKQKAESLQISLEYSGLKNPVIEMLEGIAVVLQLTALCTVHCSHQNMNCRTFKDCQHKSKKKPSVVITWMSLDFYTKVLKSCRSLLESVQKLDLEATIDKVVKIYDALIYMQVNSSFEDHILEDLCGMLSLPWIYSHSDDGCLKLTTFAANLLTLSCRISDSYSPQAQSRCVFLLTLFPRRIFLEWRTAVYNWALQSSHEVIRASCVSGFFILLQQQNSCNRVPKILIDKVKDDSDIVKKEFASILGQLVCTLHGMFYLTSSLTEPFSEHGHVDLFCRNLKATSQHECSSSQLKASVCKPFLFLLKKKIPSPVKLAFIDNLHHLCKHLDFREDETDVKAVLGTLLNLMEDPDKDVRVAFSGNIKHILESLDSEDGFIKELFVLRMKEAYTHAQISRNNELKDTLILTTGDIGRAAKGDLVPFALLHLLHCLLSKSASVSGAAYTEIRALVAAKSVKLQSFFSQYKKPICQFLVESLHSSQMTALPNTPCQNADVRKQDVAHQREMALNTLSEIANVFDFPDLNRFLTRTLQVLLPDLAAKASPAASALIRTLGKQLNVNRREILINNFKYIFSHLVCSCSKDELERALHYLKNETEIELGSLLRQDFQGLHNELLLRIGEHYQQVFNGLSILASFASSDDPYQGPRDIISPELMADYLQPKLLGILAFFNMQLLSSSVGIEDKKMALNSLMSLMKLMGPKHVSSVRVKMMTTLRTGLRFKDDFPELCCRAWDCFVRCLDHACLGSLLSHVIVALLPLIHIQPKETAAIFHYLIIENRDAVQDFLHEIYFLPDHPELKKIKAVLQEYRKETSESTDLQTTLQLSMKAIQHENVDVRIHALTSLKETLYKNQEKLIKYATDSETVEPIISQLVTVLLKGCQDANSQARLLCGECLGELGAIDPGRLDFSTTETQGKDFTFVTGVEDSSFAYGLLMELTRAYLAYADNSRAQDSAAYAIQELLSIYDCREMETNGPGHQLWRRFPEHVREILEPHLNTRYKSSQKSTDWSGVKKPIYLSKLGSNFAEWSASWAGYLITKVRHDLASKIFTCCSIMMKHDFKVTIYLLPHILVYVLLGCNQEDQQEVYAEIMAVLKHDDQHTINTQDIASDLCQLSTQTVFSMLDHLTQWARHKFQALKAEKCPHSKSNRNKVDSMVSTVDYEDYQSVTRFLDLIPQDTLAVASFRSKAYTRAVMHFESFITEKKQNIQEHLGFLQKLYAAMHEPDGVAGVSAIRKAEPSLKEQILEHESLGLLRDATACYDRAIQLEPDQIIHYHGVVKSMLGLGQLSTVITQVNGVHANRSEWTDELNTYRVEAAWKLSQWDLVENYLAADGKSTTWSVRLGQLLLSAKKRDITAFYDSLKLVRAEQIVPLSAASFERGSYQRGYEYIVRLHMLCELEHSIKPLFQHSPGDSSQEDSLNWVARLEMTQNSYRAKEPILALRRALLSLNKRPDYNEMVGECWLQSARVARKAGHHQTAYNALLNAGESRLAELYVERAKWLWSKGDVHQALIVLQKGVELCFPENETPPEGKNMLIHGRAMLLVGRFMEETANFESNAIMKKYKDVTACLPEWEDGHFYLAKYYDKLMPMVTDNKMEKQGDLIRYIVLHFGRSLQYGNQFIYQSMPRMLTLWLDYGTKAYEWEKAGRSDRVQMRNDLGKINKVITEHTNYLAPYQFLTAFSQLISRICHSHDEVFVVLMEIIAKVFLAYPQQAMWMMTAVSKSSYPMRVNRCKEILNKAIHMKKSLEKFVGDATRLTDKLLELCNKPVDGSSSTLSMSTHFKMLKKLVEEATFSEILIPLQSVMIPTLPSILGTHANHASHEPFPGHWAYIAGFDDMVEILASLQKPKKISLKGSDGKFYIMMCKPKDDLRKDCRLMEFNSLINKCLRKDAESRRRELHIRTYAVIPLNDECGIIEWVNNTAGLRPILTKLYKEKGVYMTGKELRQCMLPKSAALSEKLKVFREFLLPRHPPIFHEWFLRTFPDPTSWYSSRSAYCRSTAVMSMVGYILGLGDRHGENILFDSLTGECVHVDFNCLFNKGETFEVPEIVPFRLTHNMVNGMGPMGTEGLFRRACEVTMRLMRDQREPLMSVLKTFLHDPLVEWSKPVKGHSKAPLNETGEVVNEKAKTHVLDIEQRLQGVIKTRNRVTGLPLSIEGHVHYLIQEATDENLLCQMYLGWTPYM

SMILES	CP3 Shift [1] [µM]	Ki (ATR kinase) [µM]
CC(C)S(=O)(=O)c1ccc(-c2cnc(N)c(C#Cc3ccccn3)n2)cc1 [Compound I-33, 5-(4-Isopropylsulfonylphenyl)-3-[2-(2-pyridyl)ethynyl]pyrazin-2-amine]	2.5	≤ 0.1
CC(C)S(=O)(=O)c1ccc(-c2cnc(N)c(C#Cc3cccs3)n2)cc1 [Compound I-22, 5-(4-Isopropylsulfonylphenyl)-3-[2-(2-thienyl)ethynyl]pyrazin-2-amine]	1.25	≤ 0.1
CC(C)S(=O)(=O)c1ccc(-c2cnc(N)c(C#Cc3ccccc3)n2)cc1 [Compound I-7, 5-(4-Isopropylsulfonylphenyl)-3-(2-phenylethynyl)pyrazin-2-amine]	2.5	≤ 0.1
Nc1ncc(-c2ccc(S(=O)(=O)C3CCOCC3)cc2)nc1C#Cc1cccc(O)c1 [Compound I-34, 3-[2-[3-Amino-6-(4-tetrahydropyran-4-ylsulfonylphenyl)pyrazin-2-yl]ethynyl]phenol]	0.079	≤ 0.1
CC(C)S(=O)(=O)c1ccc(-c2cnc(N)c(C#Cc3cccc(N)c3)n2)cc1 [Compound I-21, 3-[2-(3-Aminophenyl)ethynyl]-5-(4-isopropylsulfonylphenyl)pyrazin-2-amine]	0.312	≤ 0.1
CC(C)S(=O)(=O)c1ccc(-c2cnc(N)c(C#Cc3ccc(C#N)cc3)n2)cc1 [Compound I-15, 4-[2-[3-Amino-6-(4-isopropylsulfonylphenyl)pyrazin-2-yl]ethynyl]benzonitrile]	–	1 to 13
CC(C)S(=O)(=O)c1ccc(-c2cnc(N)c(C#Cc3cncn3C)n2)cc1 [Compound I-39]	–	≤ 0.1
N#Cc1ccccc1-c1cnc(N)c(C#Cc2cccc(O)c2)n1 [Compound I-18, 2-[5-Amino-6-[2-(3-hydroxyphenyl)ethynyl]pyrazin-2-yl]benzonitrile]	–	≤ 0.1
CC(C)S(=O)(=O)c1ccc(-c2cnc(N)c(C#Cc3cccc(Cl)c3)n2)cc1 [Compound I-9, 3-[2-(3-Chlorophenyl)ethynyl]-5-(4-isopropylsulfonylphenyl)pyrazin-2-amine]	–	≤ 0.1
CC(C)S(=O)(=O)c1ccc(-c2cnc(N)c(C#Cc3cccc(F)c3)n2)cc1 [Compound I-1, 3-[2-(3-Fluorophenyl)ethynyl]-5-(4-isopropylsulfonylphenyl)pyrazin-2-amine]	–	≤ 0.1
CC(C)S(=O)(=O)c1ccc(-c2cnc(N)c(C#Cc3ccccc3N3CCNCC3)n2)cc1 [Compound I-43, 5-(4-(isopropylsulfonyl)phenyl)-3-((2-(piperazin-1-yl)phenyl)ethynyl)pyrazin-2-amine]	–	≤ 0.1
CC(C)S(=O)(=O)c1ccc(-c2cnc(N)c(C#Cc3ccccc3F)n2)cc1 [Compound I-40, 3-((2-fluorophenyl)ethynyl)-5-(4-(isopropylsulfonyl)phenyl)pyrazin-2-amine]	2.5	≤ 0.1
CC(=O)Nc1cccc(C#Cc2nc(-c3ccc(S(=O)(=O)C(C)C)cc3)cnc2N)c1 [Compound I-6, N-[3-[2-[3-Amino-6-(4-isopropylsulfonylphenyl)pyrazin-2-yl]ethynyl]phenyl]acetamide]	–	≤ 0.1
CC(C)S(=O)(=O)c1ccc(-c2cnc(N)c(C#Cc3cccc(O)c3)n2)cc1 [Compound I-35, 3-[2-[3-Amino-6-(4-isopropylsulfonylphenyl)pyrazin-2-yl]ethynyl]phenol]	0.118	≤ 0.1
CC(C)S(=O)(=O)c1ccc(-c2cnc(N)c(C#C[C@H](C)O)n2)cc1 [Compound I-29, (2S)-4-[3-Amino-6-(4-isopropylsulfonylphenyl)pyrazin-2-yl]but-3-yn-2-ol]	–	1 to 13
CC(C)S(=O)(=O)c1ccc(-c2cnc(N)c(C#Cc3cccc(N)n3)n2)cc1 [Compound I-41, 3-((6-aminopyridin-2-yl)ethynyl)-5-(4-(isopropylsulfonyl)phenyl)pyrazin-2-amine]	–	≤ 0.1
CC(C)S(=O)(=O)c1ccc(-c2cnc(N)c(C#Cc3ccccc3N)n2)cc1 [Compound I-38, 3-((2-aminophenyl)ethynyl)-5-(4-(isopropylsulfonyl)phenyl)pyrazin-2-amine]	–	0.1 to 1
CC(C)S(=O)(=O)c1ccc(-c2cnc(N)c(C#Cc3cccnc3)n2)cc1 [Compound I-13, 5-(4-Isopropylsulfonylphenyl)-3-[2-(3-pyridyl)ethynyl]pyrazin-2-amine]	–	≤ 0.1
CC(C)S(=O)(=O)c1ccc(-c2cnc(N)c(C#Cc3ccsc3)n2)cc1 [Compound I-31, 5-(4-Isopropylsulfonylphenyl)-3-[2-(3-thienyl)ethynyl]pyrazin-2-amine]	–	0.1 to 1
